Measured values published in ChEMBL document CHEMBL2396531, “Hybrid molecule from O2-(2,4-dinitrophenyl)diazeniumdiolate and oleanolic acid: a glutathione S-transferase π-activated nitric oxide prodrug with selective anti-human hepatocellular carcinoma activity and improved stability” (J Med Chem, 2013).
Activity calls are given as the source filed them. The rule behind the calls is not given here.

Assays:
HepG2 [1] = test: Induction of intracellular NO release in human HepG2 cells at 10 uM after 24 hrs by DAF-FM DA staining-based flow cytometry; type: functional, cell-based
HepG2 [2] = test: Cytotoxicity against human HepG2 cells assessed as cell viability at 3 uM after 24 hrs by MTT assay; type: functional
HepG2 [3] = test: Cytotoxicity against human HepG2 cells assessed as cell viability at 3 uM after 24 hrs by MTT assay in presence of EA; type: functional
HepG2 [4] = test: Cytotoxicity against human HepG2 cells assessed as cell viability at 3 uM after 24 hrs by MTT assay in presence of hemoglobin; type: functional, cell-based
HepG2 [5] = test: Cytotoxicity against human HepG2 cells at 10 to 100 uM after 24 hrs by MTT assay; type: functional, cell-based
HepG2 [6] = test: Induction of intracellular NO release in human HepG2 cells at 1.5 to 6 uM after 24 hrs by Griess assay in presence of etacrynic acid; type: functional, cell-based
HepG2 [7] = test: Induction of intracellular NO release in human HepG2 cells at 1.5 to 6 uM after 24 hrs by Griess assay in presence of hemoglobin; type: functional, cell-based
HepG2 [8] = test: Induction of intracellular NO release in human HepG2 cells at 30 uM after 6 hrs by Griess assay; type: functional, cell-based
HepG2 [9] = test: Induction of apoptosis in human HepG2 cells assessed as increase in JNK phosphorylation after 24 hrs by Western blotting analysis; type: functional, cell-based
HepG2 [10] = test: Induction of apoptosis in human HepG2 cells assessed as increase in JNK phosphorylation at 3 uM by Western blotting analysis; type: functional, cell-based; conditions: TDE = time-dependent effect
HepG2 [11] = test: Induction of apoptosis in human HepG2 cells assessed as increase in ROS generation at 1.5 to 6 uM after 24 hrs by flow cytometry; type: functional, cell-based
HepG2 [12] = test: Induction of apoptosis in human HepG2 cells assessed as incerase in Caspase 9 expression after 24 hrs by Western blotting analysis; type: functional, cell-based
HepG2 [13] = test: Induction of apoptosis in human HepG2 cells assessed as incerase in Cyt c expression at 6 uM by Western blotting analysis; type: functional, cell-based; conditions: TDE = time-dependent effect
HepG2 [14] = test: Induction of apoptosis in human HepG2 cells assessed as increase in ERK phosphorylation at 3 uM by Western blotting analysis; type: functional, cell-based; conditions: TDE = time-dependent effect
HepG2 [15] = test: Induction of apoptosis in human HepG2 cells assessed as ROS generation at 1.5 to 6 uM after 24 hrs by flow cytometry in presence of Tiron; type: functional, cell-based
H22 [16] = test: Antitumor activity against mouse H22 cells […] in ip dosed mouse assessed as reduction in tumor volume after 14 days relative to vehicle-treated control; type: functional, organism-based
HepG2 [17] = test: Induction of intracellular NO release in human HepG2 cells at 1.5 to 6 uM after 24 hrs by DAF-FM DA staining-based flow cytometry; type: functional, cell-based
HepG2 [18] = test: Induction of apoptosis in human HepG2 cells assessed as incerase in Bax expression at 6 uM by Western blotting analysis; type: functional, cell-based; conditions: TDE = time-dependent effect
HepG2 [19] = test: Induction of apoptosis in human HepG2 cells assessed as reduction in Bcl2 expression at 6 uM by Western blotting analysis; type: functional, cell-based; conditions: TDE = time-dependent effect
HepG2 [20] = test: Induction of apoptosis in human HepG2 cells assessed as incerase in Caspase 9 expression at 6 uM by Western blotting analysis; type: functional, cell-based; conditions: TDE = time-dependent effect
HepG2 [21] = test: Induction of apoptosis in human HepG2 cells at 3 uM after 24 hrs by Western blotting analysis in presence of EA; type: functional, cell-based
HepG2 [22] = test: Induction of apoptosis in human HepG2 cells assessed as increase in p38 phosphorylation at 3 uM by Western blotting analysis; type: functional, cell-based; conditions: TDE = time-dependent effect
HepG2 [23] = test: Cell cycle arrest in human HepG2 cells assessed as accumulation at G2/M phase after 24 hrs by flow cytometry; type: functional, cell-based
HepG2 [24] = test: Induction of intracellular NO release in human HepG2 cells at 1.5 to 6 uM after 24 hrs by Griess assay in presence of carboxy-PTIO; type: functional, cell-based
HepG2 [25] = test: Cell cycle arrest in human HepG2 cells assessed as decrease of cells at G0/G1 phase after 24 hrs by flow cytometry; type: functional, cell-based
H22 [26] = test: Antitumor activity against mouse H22 cells […] in ip dosed mouse assessed as reduction in tumor weight after 14 days relative to vehicle-treated control; type: functional, organism-based
L02 [27] = test: Induction of intracellular NO release in human LO2 cells after 6 hrs by Griess assay; type: functional, cell-based
HepG2 [28] = test: Induction of apoptosis in human HepG2 cells assessed as incerase in Cyt c expression after 24 hrs by Western blotting analysis; type: functional, cell-based
Homo sapiens = organism: Homo sapiens; test: Ratio of Kcat to Km for human GSTalpha
HepG2 [29] = test: Induction of apoptosis in human HepG2 cells assessed as increase in ERK phosphorylation after 24 hrs by Western blotting analysis; type: functional, cell-based
HepG2 [30] = test: Induction of apoptosis in human HepG2 cells assessed as increase in p38 phosphorylation after 24 hrs by Western blotting analysis; type: functional, cell-based
HepG2 [31] = test: Induction of apoptosis in human HepG2 cells assessed as loss of mitochondrial membrane potential after 24 hrs by JC-1 staining-based flow cytometry; type: functional, cell-based
L02 [32] = test: Induction of intracellular NO release in human LO2 cells at 6 uM by Griess assay; type: functional, cell-based; conditions: TDE = time-dependent effect
HepG2 [33] = test: Induction of apoptosis in human HepG2 cells at 3 uM after 24 hrs by Western blotting analysis in presence of carboxy-PTIO; type: functional, cell-based
HepG2 [34] = test: Cytotoxicity against human HepG2 cells after 24 hrs by MTT assay; type: functional, cell-based
HepG2 [35] = test: Induction of intracellular NO release in human HepG2 cells at 6 uM by Griess assay; type: functional, cell-based; conditions: TDE = time-dependent effect
H22 [36] = test: Antitumor activity against mouse H22 cells […] in mouse assessed as reduction in tumor growth at 153.8 umol/kg, ip after 14 days; type: functional, organism-based
HepG2 [37] = test: Induction of intracellular NO release in human HepG2 cells after 24 hrs by DAF-FM DA staining-based flow cytometry; type: functional, cell-based
HepG2 [38] = test: Induction of apoptosis in human HepG2 cells assessed as reduction in Bcl2 expression after 24 hrs by Western blotting analysis; type: functional, cell-based
HepG2 [39] = test: Induction of apoptosis in human HepG2 cells assessed as loss of mitochondrial membrane potential at 1.5 to 6 uM after 24 hrs by JC-1 staining-based flow cytometry; type: functional, cell-based
HepG2 [40] = test: Induction of intracellular NO release in human HepG2 cells after 6 hrs by Griess assay; type: functional, cell-based
HepG2 [41] = test: Induction of apoptosis in human HepG2 cells after 24 hrs by FITC-Annexin V/PI staining-based flow cytometry; type: functional, cell-based
HepG2 [42] = test: Induction of apoptosis in human HepG2 cells assessed as incerase in Bax expression after 24 hrs by Western blotting analysis; type: functional, cell-based
HepG2 [43] = test: Cytotoxicity against human HepG2 cells at 5 t0 35 uM by MTT assay; type: functional, cell-based; conditions: TDE = time-dependent effect
HepG2 [44] = test: Induction of apoptosis in human HepG2 cells at 3 uM after 24 hrs by Western blotting analysis in presence of Tiron; type: functional, cell-based
HepG2 [45] = test: Induction of apoptosis in human HepG2 cells assessed as incerase in Caspase 3 expression at 6 uM by Western blotting analysis; type: functional, cell-based; conditions: TDE = time-dependent effect
H22 [46] = test: Antitumor activity against mouse H22 cells […] in mouse assessed as reduction in tumor growth at 38.3 umol/kg, ip after 14 days; type: functional, organism-based
HepG2 [47] = test: Induction of apoptosis in human HepG2 cells assessed as incerase in Caspase 3 expression after 24 hrs by Western blotting analysis; type: functional, cell-based
SMMC-7721 = test: Cytotoxicity against human SMMC7721 cells at 30 uM after 24 hrs by MTT assay; type: functional
HepG2 [48] = test: Cytotoxicity against human HepG2 cells at 30 uM after 24 hrs by MTT assay; type: functional
Bel-7402 = test: Cytotoxicity against human Bel7402 cells at 30 uM after 24 hrs by MTT assay; type: functional

For CCOC(=O)N1CCN(/[N+]([O-])=N/Oc2ccc([N+](=O)[O-])cc2[N+](=O)[O-])CC1, the Activity (HepG2 [1]) was “Active”.

For CN(CCO)c1cc(N2CCN(CC(=O)O[C@H]3CC[C@]4(C)[C@H]5CC=C6[C@@H]7CC(C)(C)CC[C@]7(C(=O)O[C@@H]7O[C@H](CO)[C@H](O)[C@H](O)[C@H]7O)CC[C@@]6(C)[C@]5(C)CC[C@H]4C3(C)C)CC2)c([N+](=O)[O-])cc1[N+](=O)[O-], the Activity (HepG2 [2]) was “Active”, the Activity (HepG2 [3]) was “Active” and the Activity (HepG2 [4]) was “inactive”. The Activity (HepG2 [5]) was “Active”.

CN(CCO)/[N+]([O-])=N\Oc1cc(N2CCN(CC(=O)O[C@H]3CC[C@]4(C)[C@H]5CC=C6[C@@H]7CC(C)(C)CC[C@]7(C(=O)O[C@@H]7O[C@H](CO)[C@H](O)[C@H](O)[C@H]7O)CC[C@@]6(C)[C@]5(C)CC[C@H]4C3(C)C)CC2)c([N+](=O)[O-])cc1[N+](=O)[O-] was tested, and the Activity (HepG2 [6]) was “Active”, the Activity (HepG2 [7]) was “Active” and the Activity (HepG2 [8]) was “Active”. For the same molecule, the Activity (HepG2 [9]) was “Dose-dependent effect”, the Activity (HepG2 [10]) was “tde” and the Activity (HepG2 [11]) was “Active”. For the same molecule, the Activity (HepG2 [12]) was “Dose-dependent effect”, the Activity (HepG2 [13]) was “tde” and the Activity (HepG2 [14]) was “tde”. For the same molecule, the Activity (HepG2 [15]) was “Active”, the Activity (H22 [16]) was “Dose-dependent effect” and the Activity (HepG2 [4]) was “Active”. For the same molecule, the Activity (HepG2 [17]) was “Active”, the Activity (HepG2 [18]) was “tde” and the Activity (HepG2 [19]) was “tde”. The Activity (HepG2 [20]) was “tde”, the Activity (HepG2 [21]) was “Active” and the Activity (HepG2 [22]) was “tde”. For the same molecule, the Activity (HepG2 [23]) was “Dose-dependent effect”, the Activity (HepG2 [5]) was “Active” and the Activity (HepG2 [24]) was “Active”. The Activity (HepG2 [25]) was “Dose-dependent effect”, the Activity (H22 [26]) was “Dose-dependent effect” and the Activity (L02 [27]) was “Dose-dependent effect”. The Activity (HepG2 [28]) was “Dose-dependent effect”, the kcat/Km (Homo sapiens) was 2730 M⁻¹ s⁻¹ and the Activity (HepG2 [29]) was “Dose-dependent effect”. The Activity (HepG2 [30]) was “Dose-dependent effect”, the Activity (HepG2 [31]) was “Dose-dependent effect” and the Activity (L02 [32]) was “tde”. The Activity (HepG2 [33]) was “Active”, the Activity (HepG2 [34]) was “Dose-dependent effect” and the Activity (HepG2 [35]) was “tde”. The Activity (H22 [36]) was “Active”, the Activity (HepG2 [37]) was “Dose-dependent effect” and the Activity (HepG2 [38]) was “Dose-dependent effect”. The Activity (HepG2 [39]) was “Active”, the Activity (HepG2 [40]) was “Dose-dependent effect” and the Activity (HepG2 [41]) was “Dose-dependent effect”. The Activity (HepG2 [42]) was “Dose-dependent effect”, the Activity (HepG2 [43]) was “tde” and the Activity (HepG2 [44]) was “Active”. For the same molecule, the Activity (HepG2 [45]) was “tde”, the Activity (H22 [46]) was “Active” and the Activity (HepG2 [47]) was “Dose-dependent effect”.

CN(CCO)/[N+]([O-])=N/Oc1cc(NCC(=O)O[C@H]2CC[C@]3(C)[C@H]4CC=C5[C@@H]6CC(C)(C)CC[C@]6(C(=O)O[C@@H]6O[C@H](CO)[C@H](O)[C@H](O)[C@H]6O)CC[C@@]5(C)[C@]4(C)CC[C@H]3C2(C)C)c([N+](=O)[O-])cc1[N+](=O)[O-] was tested, and the Activity (HepG2 [8]) was “Active”, the Activity (SMMC-7721) was “Active” and the Activity (HepG2 [48]) was “Active”. The Activity (Bel-7402) was “Active”.
